Results from US4098798A, “Adriamycins, process for their preparation and uses thereof” (Societa' Farmaceutici Italia S.p.A., priority 1974, dated 1978).
Converted amounts (≈) assume the structure as drawn. Read-outs that look alike come from different tables or passages of the source.

Tests used:
[1] = system: B-subtilis; test: inhibition zones on agar-B-subtilis plates, paper disc technique; assay type: cell-based; settings: hydrochlorides, read-out: inhibition zone diameter; for zone of inhibition at 5 µg/disc: 5 μg; for zone of inhibition at 10 µg/disc: 10 μg; for zone of inhibition at 15 µg/disc: 15 μg; for zone of inhibition at 20 µg/disc: 20 μg
[2] = system: HeLa cells; test: Cloning Efficiency of Hela cells in vitro; assay type: cell-based; settings: for IC50: Homo sapiens, HeLa, 50% inhibition of colonies
Protocol: After treatment for 2,8 or 24 hours, HeLa cells were seeded (200 cells per plate) and the number of colonies determined 8 days later.
The ID50 represents the dose which gives a 50% of inhibition of colonies.

[3] = system: Ascites Sarcoma 180; test: Action on Ascites Sarcoma 180 in mice; assay type: in vivo, mice (Swiss CD 1); settings: for Average Survival time: one day after inoculation, untreated = 100%
Protocol: The tests were carried out on groups of 10 mice (Swiss CD 1). The compounds under examination were administered intraperitoneally in varying doses to the test animals one day after intraperitoneal inoculation with 1 × 10^6 tumor cells per animal. The average survival time is given in Table 1 as a percentage of the survival time of untreated animals, which is arbitrarily designated as 100%. Also given in Table 1 are the number of long term survivors.

[4] = cell proliferation in uninfected mouse embryo fibroblast cultures (cytotoxic action); assay type: cell-based; settings: mouse embryo fibroblasts, treatment of 3 days, read-out: Cytotoxic Action ID50
Protocol: (§1) The test compounds were evaluated on mouse embryo fibroblast cultures infected with MSV and on similar uninfected cultures. After a treatment of 3 days, the inhibiting doses (ID50) were evaluated on cell proliferation in uninfected cultures (cytotoxic action) and on MSV foci formation in infected cultures (antiviral action).

[5] = system: MSV; test: Activity on MSV Production, focus assay; assay type: cell-based, Moloney Sarcoma Virus; settings: 0.05 γ/ml, 3 days; control 4.7 × 10^4
Protocol: MSV infected cultures were treated for 3 days, and the virus yields were determined in the cell and supernatant medium by focus assay in the presence of leukemia virus.

[6] = system: Moloney Sarcoma Virus (MSV); test: MSV foci formation in infected mouse embryo fibroblast cultures (antiviral action); assay type: cell-based; settings: 72 h, treatment of 3 days, read-out: Antiviral Action ID50
Protocol: as §1

[7] = Cardiotoxic activity in vitro, beating of myocardial cells; assay type: cell-based, mice; settings: mouse, 0.5 μg/ml, read-out: decrease of beating
[8] = system: Transplanted Gross Leukemia; test: Action on Transplanted Gross Leukemia in mice; assay type: in vivo, C3 H/He mice; settings: first to fifth day
Text: Inbred C3 H/He mice were intravenously inoculated with […] leukemia cells/mouse and treated, intravenously, from the first to the fifth day after inoculation with the compounds under examination.

[9] = system: L1210 Leukemia; test: Action on L1210 Leukemia in mice; assay type: in vivo, BDF1 mice; settings: 5 times every two hours on days 1 and 2
Text: Inbred BDF1 mice were intraperitoneally inoculated with 10^5 leukemia cells/mouse, and then treated (intraperitoneally) 5 times (every two hours) on days 1 and 2 after the tumor inoculation with varying doses of the compounds under examination.

[10] = system: Solid Sarcoma 180; test: Activity on Solid Sarcoma 180 in mice; assay type: in vivo, Swiss CD 1 mice; settings: for % Inhibition tumor growth: 10th day
[11] = Table 7, 2h treatment, read-out: DI50 (the source's name)
[12] = Table 7, 8h treatment, read-out: DI50 (the source's name)
[13] = Table 7, 24h treatment, read-out: DI50 (the source's name)
[14] = Table 8, 2h treatment, read-out: DI 50 (the source's name)
[15] = Table 8, 8h treatment, read-out: DI 50 (the source's name)
[16] = Table 8, 24h treatment, read-out: DI 50 (the source's name)
[17] = Table 7, 0.1 μg/ml, 8h, control 125
[18] = Table 7, 0.1 μg/ml, 24h, control 223
[19] = Table 7, 0.25 μg/ml, 8h, control 125
[20] = Table 7, 0.25 μg/ml, 24h, control 223
[21] = Table 7, 0.5 μg/ml, 8h, control 125
[22] = Table 7, 0.5 μg/ml, 24h, control 223
[23] = Table 7, 1 μg/ml, 2h, control 132
[24] = Table 7, 1 μg/ml, 8h, control 125
[25] = Table 7, 1 μg/ml, 24h, control 223
[26] = Table 8, 0.125 μg/ml, 2h, control 156
[27] = Table 8, 0.25 μg/ml, 8h, control 189
[28] = Table 8, 0.25 μg/ml, 24h, control 136
[29] = Table 8, 0.5 μg/ml, 2h, control 156
[30] = Table 8, 0.5 μg/ml, 8h, control 189
[31] = 1.25 mg/Kg subcutaneously every 2 hrs for 5 times at days 1 and 3
[32] = 1.75 mg/Kg subcutaneously every 2 hrs for 5 times at days 1 and 3
[33] = 2 mg/Kg intravenously twice a day on days 1,2,3
[34] = 2.45 mg/Kg subcutaneously every 2 hrs for 5 times at days 1 and 3
[35] = 2.5 mg/Kg intravenously once a day on days 1,2,3,4,5
[36] = 2.5 mg/Kg intravenously twice a day on days 1,2,3
[37] = 3 mg/Kg intravenously twice a day on days 1,2,3

COc1cccc2c1C(=O)c1c(O)c3c(c(O)c1C2=O)C[C@@](O)(C(=O)CO)C[C@@H]3O[C@@H]1C[C@H](N)[C@@H](O)[C@H](C)O1 [4'-epi-adriamycin (β-anomer), 7-0-(3'-amino-2',3',6'-trideoxy-β-L-arabinohexopyranosyl)-adriamycinone]
zone of inhibition at 5 µg/disc [1]: 15 mm
zone of inhibition at 10 µg/disc [1]: 15.5 mm
zone of inhibition at 15 µg/disc [1]: 16 mm
zone of inhibition at 20 µg/disc [1]: 17 mm

COc1cccc2c1C(=O)c1c(O)c3c(c(O)c1C2=O)C[C@@](O)(C(=O)CO)C[C@@H]3O[C@H]1C[C@H](N)[C@@H](O)[C@H](C)O1 [4'-Epi-adriamycin (α-anomer), 7-0-(3'-amino-2',3',6'-trideoxy-α-L-arabinohexopyranosyl)-adriamycinone]
IC50 [2, 11]: 0.85 µg/mL (≈ 1.56 µM)
IC50 [2, 12]: 0.7 µg/mL (≈ 1.29 µM)
IC50 [2, 13]: 0.36 µg/mL (≈ 0.662 µM)
IC50 [2, 14]: 5 µg/mL (≈ 9.2 µM)
IC50 [2, 15]: 0.2 µg/mL (≈ 0.368 µM)
IC50 [2, 16]: 0.2 µg/mL (≈ 0.368 µM)
Average Number of Colonies [2, 17]: 158
Average Number of Colonies [2, 18]: 216
Average Number of Colonies [2, 19]: 150
Average Number of Colonies [2, 20]: 199
Average Number of Colonies [2, 21]: 92
Average Number of Colonies [2, 22]: 52
Average Number of Colonies [2, 23]: 57
Average Number of Colonies [2, 24]: 36
Average Number of Colonies [2, 25]: 29
Average Number of Colonies [2, 26]: 245
Average Number of Colonies ([2]; Table 8, 0.125 μg/ml, 8h, control 189): 170
Average Number of Colonies [2, 27]: 43
Average Number of Colonies [2, 28]: 46
Average Number of Colonies [2, 29]: 130
Average Number of Colonies [2, 30]: 45
Average Number of Colonies ([2]; Table 8, 0.5 μg/ml, 24h, control 136): 38
Average Number of Colonies ([2]; Table 8, 1 μg/ml, 8h, control 189): 27
Average Number of Colonies ([2]; Table 8, 1 μg/ml, 24h, control 136): 17
zone of inhibition at 5 µg/disc [1]: 19 mm
zone of inhibition at 10 µg/disc [1]: 21 mm
zone of inhibition at 15 µg/disc [1]: 22 mm
zone of inhibition at 20 µg/disc [1]: 23 mm
Long Term Survivors (after 60 days) ([3]; 0.5 mg/Kg i.p.): 0/10
Average Survival time ([3]; 0.5 mg/Kg i.p.): 135%
Long Term Survivors (after 60 days) ([3]; 2 mg/Kg i.p.): 0/10
Average Survival time ([3]; 2 mg/Kg i.p.): 184%
Long Term Survivors (after 60 days) ([3]; 10 mg/Kg i.p.): 1/8
Average Survival time ([3]; 10 mg/Kg i.p.): 234%

COc1cccc2c1C(=O)c1c(O)c3c(c(O)c1C2=O)CC(O)(C(=O)CO)CC3OC1CC(N)C(O)C(C)O1 (stereo not drawn) [4'-Epi-adriamycin]
CC50 at 72 h [4]: 0.01 µg/mL (≈ 0.0184 µM)
virus yield (FFU/ml) [5]: 4 × 10^2 FFU/ml
IC50 [6]: > 0.006 µg/mL

COc1cccc2c1C(=O)c1c(O)c3c(c(O)c1C2=O)C[C@@](O)(C(=O)CO)C[C@@H]3O[C@H]1C[C@H](N)[C@H](O)[C@H](C)O1 [Adriamycin, 7-0-(3'-amino-2',3',6'-trideoxy-α-L-lyxohexopyranosyl)-adriamycinone]
CC50 at 72 h [4]: 0.01 µg/mL (≈ 0.0184 µM)
IC50 [2, 11]: 0.17 µg/mL (≈ 0.313 µM)
IC50 [2, 12]: 0.14 µg/mL (≈ 0.258 µM)
IC50 [2, 13]: 0.016 µg/mL (≈ 0.0294 µM)
IC50 [2, 14]: 0.35 µg/mL (≈ 0.644 µM)
IC50 [2, 15]: 0.18 µg/mL (≈ 0.331 µM)
IC50 [2, 16]: 0.125 µg/mL (≈ 0.23 µM)
Average Number of Colonies ([2]; Table 7, 0.05 μg/ml, 24h, control 223): 76
Average Number of Colonies ([2]; Table 7, 0.1 μg/ml, 2h, control 132): 79
Average Number of Colonies [2, 17]: 73
Average Number of Colonies [2, 18]: 48
Average Number of Colonies ([2]; Table 7, 0.25 μg/ml, 2h, control 132): 46
Average Number of Colonies [2, 19]: 38
Average Number of Colonies [2, 20]: 20
Average Number of Colonies ([2]; Table 7, 0.5 μg/ml, 2h, control 132): 42
Average Number of Colonies [2, 21]: 16
Average Number of Colonies [2, 22]: 0
Average Number of Colonies [2, 23]: 21
Average Number of Colonies [2, 24]: 8
Average Number of Colonies [2, 25]: 0
Average Number of Colonies [2, 26]: 166
Average Number of Colonies ([2]; Table 8, 0.125 μg/ml, 24h, control 136): 69
Average Number of Colonies ([2]; Table 8, 0.25 μg/ml, 2h, control 156): 92
Average Number of Colonies [2, 27]: 28
Average Number of Colonies [2, 28]: 43
Average Number of Colonies [2, 29]: 27
Average Number of Colonies [2, 30]: 14
inhibition at 2 h [7]: 50%
Long Term Survivors (after 60 days) ([8]; 2 mg/Kg i.v.): 0/10
Average Survival time, Exp. 1 ([8]; 2 mg/Kg i.v.): 183%
Long Term Survivors (after 60 days) ([8]; 2.5 mg/Kg i.v.): 0/20
Average Survival time, Exp. 1 ([8]; 2.5 mg/Kg i.v.): 208%
Average Survival time, Exp. 2 ([8]; 2.5 mg/Kg i.v.): 186%
Long Term Survivors (after 60 days) ([8]; 2.75 mg/Kg i.v.): 0/10
Average Survival time, Exp. 1 ([8]; 2.75 mg/Kg i.v.): 208%
Long Term Survivors (after 60 days) ([8]; 3 mg/Kg i.v.): 0/10
Average Survival time, Exp. 2 ([8]; 3 mg/Kg i.v.): 186%
Long Term Survivors (after 60 days) ([8]; 3.6 mg/Kg i.v.): 0/10
Average Survival time, Exp. 2 ([8]; 3.6 mg/Kg i.v.): 200%
zone of inhibition at 10 µg/disc [1]: 21 mm
zone of inhibition at 20 µg/disc [1]: 23 mm
Long Term Survivors (after 60 days) ([3]; 1 mg/Kg i.p.): 0/10
Average Survival time ([3]; 1 mg/Kg i.p.): 169%
Long Term Survivors (after 60 days) ([3]; 5 mg/Kg i.p.): 2/10
Average Survival time ([3]; 5 mg/Kg i.p.): 276%
Average Survival time ([9]; 0.75 mg/Kg i.p.): 160%
Average Survival time ([9]; 1 mg/Kg i.p.): 155%
Long Term Survivors (after 60 days) ([9]; 1 mg/Kg i.p.): 1/10
Average Survival time ([9]; 1.25 mg/Kg i.p.): 175%
Average Survival time [10, 31]: 112%
Toxic Deaths (at 10th day) [10, 31]: 0/10
% Inhibition tumor growth [10, 31]: 69%
Average Survival time [10, 32]: 87%
Toxic Deaths (at 10th day) [10, 32]: 1/10
% Inhibition tumor growth [10, 32]: 75%
Average Survival time [10, 33]: 100%
Toxic Deaths (at 10th day) [10, 33]: 1/10
% Inhibition tumor growth [10, 33]: 70%
Average Survival time [10, 34]: 32%
Toxic Deaths (at 10th day) [10, 34]: 6/10
Toxic Deaths (at 10th day) [10, 35]: 0/10
% Inhibition tumor growth [10, 35]: 54%
Average Survival time [10, 36]: 100%
Toxic Deaths (at 10th day) [10, 36]: 2/10
% Inhibition tumor growth [10, 36]: 71%
Average Survival time [10, 37]: 57%
Toxic Deaths (at 10th day) [10, 37]: 6/10
Toxic Deaths (at 10th day) ([10]; 3.5 mg/Kg intravenously once a day on days 1,2,3,4,5): 7/10
IC50 [6]: 0.005 µg/mL (≈ 0.0092 µM)
